Data as given in ChEMBL document CHEMBL1201862, “PubChem BioAssay data set” (2004).
Activity calls are given as the source filed them.

Assays:
[1] = target: Cystic fibrosis transmembrane conductance regulator/Golgi-associated PDZ and coiled-coil motif-containing protein (Homo sapiens, UniProt P13569+Q9HD26); assay: CAL PDZ peptide-binding inhibitors, dose response, biochemical, fluorescence polarization, Cerulean-tagged CAL PDZ, cherry-picks (AID 504773)
Protein RecA = target: T1, Protein RecA (Mycobacterium tuberculosis, UniProt P9WHJ3); assay: Fluorescence Cell-Free Homogeneous Dose Retest to Identify Inhibitors of RecA-Intein Splicing Activity. [Related pubchem assays (depositor defined):AID2097, AID2223, AID489010, AID492950]; type: functional
T1 sequence (P9WHJ3 whole entry): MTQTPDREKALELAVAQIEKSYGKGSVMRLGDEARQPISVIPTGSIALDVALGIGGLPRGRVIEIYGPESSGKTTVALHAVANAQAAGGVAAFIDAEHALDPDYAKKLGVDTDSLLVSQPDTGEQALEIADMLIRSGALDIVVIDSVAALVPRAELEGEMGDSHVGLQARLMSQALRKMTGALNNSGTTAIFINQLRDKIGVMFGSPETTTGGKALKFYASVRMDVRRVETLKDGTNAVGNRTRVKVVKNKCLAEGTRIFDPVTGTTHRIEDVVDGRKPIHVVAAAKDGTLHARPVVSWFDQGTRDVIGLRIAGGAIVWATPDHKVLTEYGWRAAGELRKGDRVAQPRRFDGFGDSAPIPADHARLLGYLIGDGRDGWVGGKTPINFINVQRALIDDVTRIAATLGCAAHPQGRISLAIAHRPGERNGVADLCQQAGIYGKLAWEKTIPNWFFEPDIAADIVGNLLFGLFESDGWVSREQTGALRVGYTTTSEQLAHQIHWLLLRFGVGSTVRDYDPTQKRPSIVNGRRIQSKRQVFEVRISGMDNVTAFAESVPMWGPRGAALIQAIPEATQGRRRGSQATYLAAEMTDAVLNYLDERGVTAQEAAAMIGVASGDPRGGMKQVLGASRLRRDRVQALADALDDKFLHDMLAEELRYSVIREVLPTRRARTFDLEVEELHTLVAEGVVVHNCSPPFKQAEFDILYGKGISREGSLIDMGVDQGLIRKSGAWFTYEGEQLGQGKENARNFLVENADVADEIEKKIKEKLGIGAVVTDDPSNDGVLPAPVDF

Hexokinase HKDC1 [2] = target: T2, Hexokinase HKDC1 (Homo sapiens, UniProt Q2TB90); assay: HKDC1 hexokinase inhibitors, dose response, biochemical, W721R variant (AID 504729); type: functional
T2 sequence (Q2TB90 whole entry): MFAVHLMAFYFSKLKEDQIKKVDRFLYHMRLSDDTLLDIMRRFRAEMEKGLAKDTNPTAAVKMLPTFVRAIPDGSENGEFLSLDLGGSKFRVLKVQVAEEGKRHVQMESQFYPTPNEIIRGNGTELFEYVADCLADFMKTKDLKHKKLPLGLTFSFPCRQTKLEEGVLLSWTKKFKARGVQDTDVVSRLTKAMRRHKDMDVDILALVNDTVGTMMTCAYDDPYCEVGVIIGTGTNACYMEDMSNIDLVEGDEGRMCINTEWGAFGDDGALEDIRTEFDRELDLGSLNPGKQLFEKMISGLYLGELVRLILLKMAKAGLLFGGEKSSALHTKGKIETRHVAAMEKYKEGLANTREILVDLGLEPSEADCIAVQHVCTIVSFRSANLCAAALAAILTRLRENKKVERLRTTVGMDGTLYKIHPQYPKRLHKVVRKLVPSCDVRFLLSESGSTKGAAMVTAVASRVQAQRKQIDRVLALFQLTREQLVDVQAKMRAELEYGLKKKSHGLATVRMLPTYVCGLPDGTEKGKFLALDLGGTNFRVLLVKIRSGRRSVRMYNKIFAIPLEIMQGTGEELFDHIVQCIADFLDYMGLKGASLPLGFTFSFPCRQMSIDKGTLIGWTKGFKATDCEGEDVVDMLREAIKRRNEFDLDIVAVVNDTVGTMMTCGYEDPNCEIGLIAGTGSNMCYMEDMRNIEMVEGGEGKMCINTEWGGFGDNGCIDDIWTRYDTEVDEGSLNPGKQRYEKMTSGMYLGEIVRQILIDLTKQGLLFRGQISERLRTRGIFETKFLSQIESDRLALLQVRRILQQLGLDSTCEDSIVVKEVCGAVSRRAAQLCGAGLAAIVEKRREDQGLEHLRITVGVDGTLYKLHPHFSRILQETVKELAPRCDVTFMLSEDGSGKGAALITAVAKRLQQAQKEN

[3] = CAL PDZ domain peptide-binding inhibitors, dose response, biochemical, fluorescence polarization, untagged CAL PDZ, cherry-pick (AID 602267); type: functional
Hexokinase HKDC1 [4] = target: T2, Hexokinase HKDC1; assay: SAR analysis of small molecule inhibitors of hexokinase domain containing I (HKDC1) - Set 3. [Related pubchem assays (depositor defined):AID493160, AID493190]; type: functional
[5] = target: T3, Replicative DNA helicase DnaB (Mycobacterium tuberculosis, UniProt P9WMR3); assay: DnaB intein splicing inhibitors, dose response, biochemical, cell-free fluorescence (AID 449749); type: functional
T3 sequence (P9WMR3 whole entry): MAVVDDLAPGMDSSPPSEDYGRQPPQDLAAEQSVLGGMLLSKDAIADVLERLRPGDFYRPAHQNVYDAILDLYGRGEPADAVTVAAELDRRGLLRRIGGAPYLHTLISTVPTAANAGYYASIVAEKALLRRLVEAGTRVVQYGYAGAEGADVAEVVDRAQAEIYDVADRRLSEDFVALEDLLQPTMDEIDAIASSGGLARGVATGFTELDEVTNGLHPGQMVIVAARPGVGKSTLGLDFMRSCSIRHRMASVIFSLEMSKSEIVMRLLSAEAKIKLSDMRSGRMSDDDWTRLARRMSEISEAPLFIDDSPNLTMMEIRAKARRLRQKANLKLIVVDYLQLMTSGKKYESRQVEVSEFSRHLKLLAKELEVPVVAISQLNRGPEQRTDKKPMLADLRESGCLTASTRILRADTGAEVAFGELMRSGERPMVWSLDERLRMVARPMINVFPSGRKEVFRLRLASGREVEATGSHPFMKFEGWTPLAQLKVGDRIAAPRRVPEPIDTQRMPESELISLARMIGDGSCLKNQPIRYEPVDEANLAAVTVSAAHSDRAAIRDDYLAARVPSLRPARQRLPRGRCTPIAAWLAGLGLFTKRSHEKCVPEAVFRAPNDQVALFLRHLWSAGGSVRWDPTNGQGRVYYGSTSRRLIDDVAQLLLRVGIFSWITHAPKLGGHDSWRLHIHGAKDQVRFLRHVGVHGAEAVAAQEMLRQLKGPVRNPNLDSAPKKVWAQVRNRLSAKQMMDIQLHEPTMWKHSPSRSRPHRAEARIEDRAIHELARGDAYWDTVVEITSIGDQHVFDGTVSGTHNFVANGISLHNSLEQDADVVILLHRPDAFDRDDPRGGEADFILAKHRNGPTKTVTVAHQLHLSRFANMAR

Caspase-6 = target: T4, Caspase-6 (Homo sapiens, UniProt P55212); assay: human caspase-6 inhibitors, dose response, biochemical, VEID-R110 fluorescence, cherry-pick (AID 720632)
T4 sequence (P55212 whole entry): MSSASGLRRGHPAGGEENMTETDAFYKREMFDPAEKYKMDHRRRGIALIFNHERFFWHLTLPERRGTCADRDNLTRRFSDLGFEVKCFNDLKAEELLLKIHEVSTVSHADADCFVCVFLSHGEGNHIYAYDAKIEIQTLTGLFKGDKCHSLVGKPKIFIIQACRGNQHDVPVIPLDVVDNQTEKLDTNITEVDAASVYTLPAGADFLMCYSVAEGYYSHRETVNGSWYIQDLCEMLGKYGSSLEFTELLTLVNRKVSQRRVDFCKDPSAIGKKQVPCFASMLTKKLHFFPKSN

Hexokinase HKDC1 [6] = target: T2, Hexokinase HKDC1; assay: HKDC1 hexokinase inhibitors, SAR follow-up, biochemical, set 2 (AID 588355); type: functional
[7] = target: T5, Tyrosyl-DNA phosphodiesterase 2 (Homo sapiens, UniProt O95551); assay: human TDP2 enzyme inhibitors, dose response, biochemical, epi absorbance, IC50 (AID 743297)
T5 sequence (O95551 whole entry): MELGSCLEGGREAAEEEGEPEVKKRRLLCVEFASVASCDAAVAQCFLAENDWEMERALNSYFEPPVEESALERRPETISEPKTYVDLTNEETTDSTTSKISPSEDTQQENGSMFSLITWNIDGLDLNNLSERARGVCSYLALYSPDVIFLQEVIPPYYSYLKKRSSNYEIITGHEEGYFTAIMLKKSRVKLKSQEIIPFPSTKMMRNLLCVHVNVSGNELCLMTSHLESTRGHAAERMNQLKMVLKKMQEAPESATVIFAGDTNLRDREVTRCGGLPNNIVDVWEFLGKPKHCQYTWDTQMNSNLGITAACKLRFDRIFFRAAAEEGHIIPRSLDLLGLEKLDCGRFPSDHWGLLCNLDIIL

Sequence of Cystic fibrosis transmembrane conductance regulator/Golgi-associated PDZ and coiled-coil motif-containing protein (P13569 whole entry, other chains not shown): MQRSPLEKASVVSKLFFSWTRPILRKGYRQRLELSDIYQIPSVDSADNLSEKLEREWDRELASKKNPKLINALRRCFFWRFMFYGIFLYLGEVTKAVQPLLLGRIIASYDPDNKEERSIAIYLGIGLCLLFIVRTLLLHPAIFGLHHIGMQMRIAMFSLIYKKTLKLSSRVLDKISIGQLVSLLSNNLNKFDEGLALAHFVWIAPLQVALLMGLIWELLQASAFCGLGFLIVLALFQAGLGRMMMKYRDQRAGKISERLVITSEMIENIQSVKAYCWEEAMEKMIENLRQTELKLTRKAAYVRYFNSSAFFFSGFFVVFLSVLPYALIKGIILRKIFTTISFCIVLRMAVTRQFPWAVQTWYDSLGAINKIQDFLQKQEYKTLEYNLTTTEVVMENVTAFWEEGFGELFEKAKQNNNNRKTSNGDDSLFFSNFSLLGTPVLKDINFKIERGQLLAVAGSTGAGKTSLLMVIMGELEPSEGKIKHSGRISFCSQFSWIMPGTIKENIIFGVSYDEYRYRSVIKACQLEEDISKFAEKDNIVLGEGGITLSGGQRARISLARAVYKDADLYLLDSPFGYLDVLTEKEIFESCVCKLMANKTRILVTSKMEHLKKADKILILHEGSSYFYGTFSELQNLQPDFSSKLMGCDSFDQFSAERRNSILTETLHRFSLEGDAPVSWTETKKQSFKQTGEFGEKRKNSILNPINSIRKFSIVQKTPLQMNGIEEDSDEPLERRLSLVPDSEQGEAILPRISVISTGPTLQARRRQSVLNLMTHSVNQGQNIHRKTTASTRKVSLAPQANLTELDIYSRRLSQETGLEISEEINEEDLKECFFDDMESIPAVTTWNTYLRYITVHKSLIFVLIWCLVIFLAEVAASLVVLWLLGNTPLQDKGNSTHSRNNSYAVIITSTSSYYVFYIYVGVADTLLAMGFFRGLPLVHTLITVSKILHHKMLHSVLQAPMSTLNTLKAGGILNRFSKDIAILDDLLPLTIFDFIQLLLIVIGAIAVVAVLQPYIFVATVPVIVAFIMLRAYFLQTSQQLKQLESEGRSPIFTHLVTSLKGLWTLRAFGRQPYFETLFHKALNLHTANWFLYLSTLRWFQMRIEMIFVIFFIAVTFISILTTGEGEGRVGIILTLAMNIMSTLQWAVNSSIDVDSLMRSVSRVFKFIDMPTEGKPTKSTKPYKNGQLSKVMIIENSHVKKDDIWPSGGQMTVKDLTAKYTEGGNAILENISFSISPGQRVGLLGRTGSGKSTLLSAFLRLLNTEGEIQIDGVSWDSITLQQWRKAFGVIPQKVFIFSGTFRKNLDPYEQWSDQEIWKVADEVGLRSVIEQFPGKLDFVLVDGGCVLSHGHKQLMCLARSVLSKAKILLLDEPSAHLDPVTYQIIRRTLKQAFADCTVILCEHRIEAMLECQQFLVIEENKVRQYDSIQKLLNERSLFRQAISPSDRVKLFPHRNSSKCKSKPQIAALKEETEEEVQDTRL

CC(=O)NC1C(=O)N(CCN2CCOCC2)c2ccc(Br)cc21 (centres undefined)
AC50 [1]: 24.8 µM (active) | EC50 (Protein RecA): 11 µM (active) | IC50 (Hexokinase HKDC1 [2]): 5.24 µM (active) | AC50 [3]: 82.6 µM (active) | IC50 (Hexokinase HKDC1 [4]): 6.88 µM (active) | AC50 [5]: 14.3 µM (active) | AC50 (Caspase-6): 12.6 µM (active) | IC50 (Hexokinase HKDC1 [6]): 8.67 µM (active) | IC50 [7]: 16.3 µM (inactive)
